# Experimental data published in PubChem BioAssay (NCI).
# Several values for one entry are separate records, joined by “and”; a condition that tells them apart may be missing. Equal values may be shown once.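 The compound was tested at five concentrations on cells cultured in 96-well plates, with a 48-hour exposure period. The concentration for 50% growth inhibition is given as GI50. TGI is the concentration that stops growth completely.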
# Key:
# Assay in all cases: growth of human tumour cells (NCI), 48 h
# A498 renal = test system: A498 renal
# HOP-62 NSCLC = test system: HOP-62 NSCLC
# HCC-2998 colon = test system: HCC-2998 colon
# A549 NSCLC = test system: A549 NSCLC
# SK-MEL-28 melanoma = test system: SK-MEL-28 melanoma
# SF-539 CNS = test system: SF-539 CNS
# SR leukemia = test system: SR leukemia
# NCI-H460 lung = test system: NCI-H460 lung
# MCF7 breast = test system: MCF7 breast
# BT-549 breast = test system: BT-549 breast
SMILES,TGI (A498 renal),TGI (HOP-62 NSCLC),TGI (HCC-2998 colon),TGI (A549 NSCLC),TGI (SK-MEL-28 melanoma),TGI (SF-539 CNS),TGI (SR leukemia),TGI (NCI-H460 lung),GI50 (A498 renal) [µM],GI50 (SR leukemia) [µM],GI50 (SK-MEL-28 melanoma) [µM],TGI (MCF7 breast) [µM],GI50 (MCF7 breast) [µM],GI50 (HOP-62 NSCLC) [µM],GI50 (NCI-H460 lung) [µM],GI50 (HCC-2998 colon) [µM],GI50 (A549 NSCLC) [µM],GI50 (BT-549 breast) [µM],TGI (BT-549 breast) [µM],GI50 (SF-539 CNS) [µM]
Cc1cc(N(CCC#N)CCC#N)ccc1N=Nc1ccc(S(N)(=O)=O)cc1,> 100 µM,> 100 µM,> 100 µM,> 100 µM,> 100 µM,> 100 µM,,,,,,,,,,,,,,
CCCCCCCCCCCC(=O)OCCOCCOCCOCCOCCOCc1ccccc1,> 100 µM,> 100 µM,> 100 µM,> 100 µM,> 100 µM,,> 100 µM,> 100 µM,,,,,,,,,,,,
Cc1c(C(=O)CC(=O)C(=O)Nc2ccccc2C(F)(F)F)[n+](=O)c2ccccc2n1[O-],> 100 µM,> 100 µM,57.7 µM,75.6 µM,92.1 µM,46.2 µM,26.6 µM,69.4 µM,,,,,,,,,,,,
CCCCCCCCCCCCCC(=O)OC(/C=C/C(C)C)C(O)C(O)C(OC)C(=O)NC1CCCCN(C)C1=O (centres undefined),32.5 µM and > 49 µM,6.54 µM and > 49 µM,5.54 µM and > 49 µM,5.06 µM and > 49 µM,7.64 µM and > 49 µM,7.18 µM and > 49 µM,4.78 µM and 5.75 µM,5.79 µM and > 49 µM,> 49,1.12,> 49,,,,,,,,,
CC1(C)C(=O)/C=C\C(=O)C(C)(C)C2=CC=C(O2)C(C)(C)C(=O)/C=C\C(=O)C(C)(C)C2=CC=C1O2,> 100 µM,> 100 µM,> 100 µM,> 100 µM,> 100 µM,,> 100 µM,> 100 µM,,,,,,,,,,,,
Cc1cc(NS(=O)(=O)c2ccc(Nc3c4ccccc4nc4c(C(=O)N5CCN(CCOS(C)(=O)=O)CC5)cccc34)cc2)no1,> 100 µM,> 100 µM,> 100 µM,> 100 µM,> 100 µM,> 100 µM,,> 100 µM,,,,,,,,,,,,
CCOC(=O)/C=C/CC(C)(C)CCOC(C)=O,,> 10 µM,> 10 µM,> 10 µM,> 10 µM,> 10 µM,> 10 µM,> 10 µM,,,,> 10,,,,,,,,
NC(=O)NO.O.O.O.O.O.O.O.O.O.O.O.[Ge].[Ge].[Ge].[Ge].[Ge].[O]=[Ge].[O]=[Ge].[O]=[Ge].[O]=[Ge].[O]=[Ge][OH],> 100 µM,> 100 µM,> 100 µM,> 100 µM,> 100 µM,> 100 µM,> 100 µM,> 100 µM,,,,,,,,,,,,
Cc1nc2c(ccc3ncccc32)[nH]1,,> 100 µM,> 100 µM,> 100 µM,> 100 µM,> 100 µM,,> 100 µM,,,,,,,,,,,,
Cc1c(C(=O)C/C(=N/NC(=O)c2ccccc2O)C(=O)Nc2ccccc2C(C)C)[n+](=O)c2ccccc2n1[O-],> 100 µM,> 100 µM,> 100 µM,> 100 µM,> 100 µM,> 100 µM,,> 100 µM,,,,,,,,,,,,
C=CCO[C@H]1CO[C@H]2[C@@H]1OC[C@@H]2Oc1ccc(Nc2ccnc(Nc3ccc(O[C@H]4CO[C@H]5[C@@H]4OC[C@@H]5OCC=C)c(Cl)c3)n2)cc1Cl,,4.01 µM,3.43 µM,3.95 µM,3.16 µM,3.25 µM,,3.35 µM,,,1.73,3.38,1.56,1.93,1.76,1.94,1.84,1.6,3.11,1.83
OCC1=CC(NC2CC(CO)C(O)C(O)C2O)C(O)C(O)C1O (centres undefined),,> 100 µM,,> 100 µM,> 100 µM,> 100 µM,,> 100 µM,,,,,,,,,,,,
COC1/C=C/OC2(C)Oc3c(C)c(O)c4c(O)c(c(/C=N/Nc5ccc([N+](=O)[O-])cc5[N+](=O)[O-])c(O)c4c3C2=O)NC(=O)C(C)=C/C=C/C(C)C(O)C(C)C(O)C(C)C(OC(C)=O)C1C (centres undefined),14 µM,25.5 µM,11.6 µM,17.3 µM,5.23 µM,19.4 µM,,14.7 µM,6.87,,1.45,> 50,2,2.47,5.22,5.05,8.01,,,1.9
CCC[CH2][Sn]([CH2]CCC)([S]c1cccc2cccnc12)[S]c1cccc2cccnc12,0.6 µM,2.79 µM,0.3 µM,1.34 µM,0.472 µM,0.617 µM,,0.356 µM,0.254,,0.16,,,0.355,0.151,0.144,0.348,,,0.234
CCOC(=O)CCC1(C(=O)OCC)CCCCC1=O (centres undefined),> 100 µM,> 100 µM,> 100 µM,> 100 µM,> 100 µM,> 100 µM,,> 100 µM,,,,,,,,,,,,
Cc1ccc(S(=O)(=O)OC[C@@H]2CO2)cc1,> 100 µM,> 100 µM,> 100 µM,> 100 µM,> 100 µM,> 100 µM,> 100 µM,> 100 µM,,,,,,,,,,,,
COc1cc2cc(OC)c3cc4c(cc3c2c(OC)c1OC)OCO4,97.5 µM,> 100 µM,25.8 µM,> 95.8 µM,> 57.6 µM,> 55.4 µM,82.6 µM,52 µM,,,,,,,,,,,,

SMILES,TGI (A498 renal),TGI (HOP-62 NSCLC),TGI (HCC-2998 colon),TGI (A549 NSCLC),TGI (SK-MEL-28 melanoma),TGI (SF-539 CNS),TGI (SR leukemia),TGI (NCI-H460 lung),GI50 (A498 renal) [µM],GI50 (SR leukemia) [µM],GI50 (SK-MEL-28 melanoma) [µM],TGI (MCF7 breast) [µM],GI50 (MCF7 breast) [µM],GI50 (HOP-62 NSCLC) [µM],GI50 (NCI-H460 lung) [µM],GI50 (HCC-2998 colon) [µM],GI50 (A549 NSCLC) [µM],GI50 (BT-549 breast) [µM],TGI (BT-549 breast) [µM],GI50 (SF-539 CNS) [µM]
O=C(O)CCNCCCNCCC(=O)O,> 100 µM,> 100 µM,> 100 µM,> 100 µM,> 100 µM,> 100 µM,,> 100 µM,,,,,,,,,,,,
CCOC(=O)C(C)(C)Oc1ccc2c(-c3ccccc3)cc(=O)oc2c1,> 100 µM,63.7 µM,> 100 µM,> 100 µM,> 100 µM,86.5 µM,88.7 µM,> 100 µM,,,,,,,,,,,,
CCn1c(C)nn2c(=O)c3ccccc3nc2c1=O,> 100 µM,> 100 µM,> 100 µM,> 100 µM,> 100 µM,> 100 µM,,> 100 µM,,,,,,,,,,,,
C1=C2/CC[C@H](Sc3ccccc3)C2C2(CCCCC/1)OCCO2 (some centres undefined),,58.2 µM,67.9 µM,,> 100 µM,> 100 µM,> 100 µM,73.9 µM,,,,,,,,,,,,
CC(=O)[CH-]C(=O)c1ccccc1.CC(=O)[CH-]C(=O)c1ccccc1.CN(C)c1ccc([O-])cc1.CN(C)c1ccc([O-])cc1.Cl.[Ti+4],> 100 µM,> 31.6 µM,> 31.6 µM,> 31.6 µM,> 31.6 µM,> 31.6 µM,,> 31.6 µM,31.1,,> 31.6,,,21.8,15.1,20.7,29,,,19
Cc1ccc(Cl)c2c(N=Nc3ccccc3[N+](=O)[O-])c(O)[nH]c12,> 100 µM,> 100 µM,> 100 µM,> 100 µM,> 100 µM,48.6 µM,> 100 µM,> 100 µM,,,,> 100,,,,,,,,
CC1(C(=O)O)CCC[C@@]2(C)C1CC[C@@]1(C)c3cocc3CCC21 (some centres undefined),> 100 µM,> 100 µM,> 100 µM,> 100 µM,> 100 µM,> 100 µM,> 100 µM,> 100 µM,,,,,,,,,,,,
CNC(=S)OCCC(C)CCCC(C)C (centres undefined),30 µM,34.1 µM,32.2 µM,32.5 µM,41 µM,30.6 µM,31.9 µM,35.2 µM,,,,,,,,,,,,
COC(=O)C1(C(C)C)CCc2c(OC)ccc(OC)c2C1=O (centres undefined),> 100 µM,> 100 µM,> 100 µM,> 100 µM,> 100 µM,> 100 µM,,> 100 µM,,,,,,,,,,,,
Nc1ccccc1S(=O)(=O)N(CC(=O)O)c1ccccc1,> 100 µM,,,> 100 µM,> 100 µM,> 100 µM,,> 100 µM,,,,,,,,,,,,
O=C(CCc1nc(=S)[nH][nH]1)Nc1ccc(Cl)c(Cl)c1,> 100 µM,> 100 µM,,> 100 µM,> 100 µM,> 100 µM,> 100 µM,> 100 µM,,,,,,,,,,,,
COC(=O)c1ccccc1NC(=O)C(=O)Cc1nc2c3c(ccc2[nH]c1=O)C(=O)c1ccccc1C3=O,> 100 µM,39.1 µM,43 µM,62.1 µM,> 100 µM,> 100 µM,,> 100 µM,,,,,,,,,,,,
O=C(Nc1nc2ccc([N+](=O)[O-])cc2s1)C(=O)C(C1OC(=O)c2ccccc21)[N+](=O)[O-] (centres undefined),45 µM,> 100 µM,> 100 µM,> 100 µM,> 100 µM,> 100 µM,> 100 µM,> 100 µM,,,,,,,,,,,,
CCOC1Oc2ccccc2C(=O)/C1=C/Nc1ccc(C(C)=O)cc1 (centres undefined),,40 µM,35.4 µM,> 100 µM,> 100 µM,56.6 µM,,> 100 µM,,,44.8,> 100,26.7,18.5,32.8,15.9,50.3,29,92.3,23.9
NC1=NCCC1(c1ccccc1)c1ccccn1 (centres undefined),> 100 µM,> 100 µM,> 100 µM,> 100 µM,> 100 µM,> 100 µM,,> 100 µM,,,,,,,,,,,,
CN(C)N=Nc1ccc(C(N)=O)cc1,> 100 µM,> 100 µM,> 100 µM,> 100 µM,> 100 µM,> 100 µM,> 100 µM,> 100 µM,,,,,,,,,,,,
O=C(O)CCC(NC(=O)c1ccc(Nc2nc3ccccc3nc2-c2cccs2)cc1)C(=O)O (centres undefined),> 100 µM,> 100 µM,> 100 µM,> 100 µM,> 100 µM,> 100 µM,> 100 µM,> 100 µM,,,,,,,,,,,,
